Test results from paper PMC7730863 (Journal of medicinal chemistry, 2020).

Target: EGFR-L858R/T790M (Homo sapiens, UniProt P00533, L858R/T790M)
Assay: radiolabeled 33P
Type: biochemical
Conditions: statement in text referring to Table 1

Sequence of EGFR-L858R/T790M (P00533 25-1210 T790M/L858R): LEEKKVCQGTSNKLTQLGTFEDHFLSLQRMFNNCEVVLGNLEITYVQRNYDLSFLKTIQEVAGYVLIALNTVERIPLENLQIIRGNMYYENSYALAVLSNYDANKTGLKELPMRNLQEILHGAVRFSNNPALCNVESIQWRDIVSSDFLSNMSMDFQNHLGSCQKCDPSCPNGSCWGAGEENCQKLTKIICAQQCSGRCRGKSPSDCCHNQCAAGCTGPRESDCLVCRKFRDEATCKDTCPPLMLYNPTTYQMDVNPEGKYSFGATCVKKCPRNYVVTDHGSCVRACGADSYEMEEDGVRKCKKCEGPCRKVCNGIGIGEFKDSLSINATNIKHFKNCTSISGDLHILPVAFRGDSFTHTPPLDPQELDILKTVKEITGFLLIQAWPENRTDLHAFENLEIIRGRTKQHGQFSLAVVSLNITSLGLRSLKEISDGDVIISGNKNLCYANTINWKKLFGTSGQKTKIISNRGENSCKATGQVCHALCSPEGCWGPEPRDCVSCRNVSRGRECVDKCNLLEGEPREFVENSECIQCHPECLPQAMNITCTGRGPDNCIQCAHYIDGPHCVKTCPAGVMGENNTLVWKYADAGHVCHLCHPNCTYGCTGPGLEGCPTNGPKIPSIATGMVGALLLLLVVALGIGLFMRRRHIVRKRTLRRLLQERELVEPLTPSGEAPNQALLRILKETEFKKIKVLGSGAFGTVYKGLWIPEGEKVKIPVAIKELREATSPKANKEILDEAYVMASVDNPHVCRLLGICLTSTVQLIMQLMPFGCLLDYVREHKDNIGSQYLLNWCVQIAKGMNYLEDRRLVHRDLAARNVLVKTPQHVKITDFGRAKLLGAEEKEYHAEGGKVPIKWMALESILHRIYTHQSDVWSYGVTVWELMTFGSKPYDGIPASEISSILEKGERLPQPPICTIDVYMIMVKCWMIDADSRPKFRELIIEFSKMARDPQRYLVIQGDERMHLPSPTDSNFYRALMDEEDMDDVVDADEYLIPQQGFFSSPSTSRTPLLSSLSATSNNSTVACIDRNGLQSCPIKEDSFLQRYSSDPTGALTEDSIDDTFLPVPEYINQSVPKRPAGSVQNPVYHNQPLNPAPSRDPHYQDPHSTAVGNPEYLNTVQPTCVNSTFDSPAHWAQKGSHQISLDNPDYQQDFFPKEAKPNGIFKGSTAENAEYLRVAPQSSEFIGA

- potency against EGFR(L858R/T790M), in words: low nanomolar potency
SMILES: C=CC(=O)Nc1ccc(OC)c(Nc2cc(-c3nc(SC)n(C)c3-c3ccc(F)cc3)ccn2)c1 [Compound 7, N-(3-((4-(5-(4-fluorophenyl)-1-methyl-2-(methylthio)-1H-imidazol-4-yl)pyridin-2-yl)amino)-4-methoxyphenyl)acrylamide]
